Test results from patent US10577362B2, “Substituted 2, 4-diamino-quinoline derivatives for use in the treatment of proliferative diseases” (GENOSCIENCE PHARMA, priority 2016, dated 2020).

Legend:
[1] = tested on: HCT-116 (colorectal carcinoma) cell line; experiment: CellTiter-Glo luminescent cell viability assay, HCT-116; format: cell-based, human; conditions: Homo sapiens; for viability at 4 µM: HCT-116, compound at 4 μM; for viability at 4 µM / viability at 10 µM: 72 h; for viability at 10 µM: HCT-116, compound at 10 μM; for EC50: HCT-116 cell line, 72 h incubation, CellTiter-Glo, read-out: EC50, growth inhibition of HCT-116
Procedure, shortened: (§1)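 Luminescent signal, normalised to diluent-treated cultures, defines % viability; EC50 is the concentration lowering it to 50%. Cells had been exposed to compound for 72 h at 37 °C in medium with 10% FBS, at a constant H2O or DMSO percentage.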

[2] = tested on: MOLM-14 (acute myeloid leukemia) cell line; experiment: CellTiter-Glo luminescent cell viability assay, MOLM-14; format: cell-based, human; conditions: Homo sapiens; for viability at 4 µM: MOLM-14, compound at 4 μM; for viability at 4 µM / viability at 10 µM: 72 h; for viability at 10 µM: MOLM-14, compound at 10 μM; for EC50: MOLM-14 cell line, 72 h incubation, CellTiter-Glo, read-out: EC50, growth inhibition of MOLM-14
Procedure, shortened: (§2)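 Adherent cells grow overnight, or suspension cells are seeded 1 h ahead; compound dilutions are then added and plates incubated 72 h at 37 °C. After 30 min at room temperature, CellTiter-Glo reagent is added and luminescence recorded. EC50 derives from signal relative to diluent control.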

[3] = tested on: HepG2 (hepatocellular carcinoma) cell line; experiment: CellTiter-Glo luminescent cell viability assay, HepG2; format: cell-based, human; conditions: Homo sapiens; for viability at 4 µM / viability at 10 µM: HepG2, HepG, 72 h; for viability at 4 µM: compound at 4 μM; for viability at 10 µM: compound at 10 μM; for EC50: HepG2 cell line, 72 h incubation, CellTiter-Glo, read-out: EC50, growth inhibition of HepG2
Procedure, shortened: as §2

[4] = tested on: PANC-1 (prancreatic carcinoma) cell line; experiment: CellTiter-Glo luminescent cell viability assay, PANC-1; format: cell-based; conditions: Homo sapiens; for viability at 4 µM: PANC-1, 4 μM; for viability at 4 µM / viability at 10 µM: 72 h, % of signal of diluent-treated cultures; for viability at 10 µM: PANC-1, 10 μM; for EC50: PANC-1 cell line, 72 h incubation, CellTiter-Glo, read-out: EC50 (growth inhibition assay of PANC-1 cell line)
Procedure, shortened: as §2

[5] = tested on: 786-O (renal adenocarcinoma) cell line; experiment: CellTiter-Glo luminescent cell viability assay, 786-O; format: cell-based, human; conditions: Homo sapiens, 786-0; for viability at 4 µM / viability at 10 µM: 786-O, 72 h; for viability at 4 µM: compound at 4 μM; for viability at 10 µM: compound at 10 μM; for EC50: 786-O cell line, 72 h incubation, CellTiter-Glo, read-out: EC50, growth inhibition of 786-O
Procedure, shortened: as §1

[6] = tested on: Huh7 (hepatocellular carcinoma) cell line; experiment: CellTiter-Glo luminescent cell viability assay, Huh7; format: cell-based, human; conditions: Homo sapiens, Huh-7; for viability at 4 µM: Huh7, compound at 4 μM; for viability at 4 µM / viability at 10 µM: 72 h; for viability at 10 µM: Huh7, compound at 10 μM; for EC50: Huh7 cell line, 72 h incubation, CellTiter-Glo, read-out: EC50, growth inhibition of Huh7
Procedure, shortened: as §2

[7] = tested on: A375 (malignant melanoma) cell line; experiment: CellTiter-Glo luminescent cell viability assay, A375; format: cell-based, human; conditions: Homo sapiens, A-375; for viability at 4 µM: A375, compound at 4 μM; for viability at 4 µM / viability at 10 µM: 72 h; for viability at 10 µM: A375, compound at 10 μM; for EC50: A375 cell line, 72 h incubation, CellTiter-Glo, read-out: EC50, growth inhibition of A375
Procedure, shortened: as §1

| SMILES | viability at 4 µM [1] | viability at 10 µM [1] | viability at 4 µM [2] | viability at 10 µM [2] | viability at 4 µM [3] | viability at 10 µM [3] | viability at 4 µM [4] | viability at 10 µM [4] | viability at 4 µM [5] | viability at 10 µM [5] | viability at 4 µM [6] | viability at 10 µM [6] | viability at 4 µM [7] | viability at 10 µM [7] | EC50 [1] | EC50 [2] | EC50 [3] | EC50 [4] | EC50 [5] | EC50 [6] | other results |
| --- | --- | --- | --- | --- | --- | --- | --- | --- | --- | --- | --- | --- | --- | --- | --- | --- | --- | --- | --- | --- | --- |
| CC(C)(C)OC(=O)NC1CCN(c2c(C#N)c(NCc3ccc(Cl)cc3)nc3ccccc23)CC1 [Compound 182CN, 2-(4-chlorobenzylamino)-3-cyano-4-{4-[(tert-butyloxycarbonyl)amino]piperidin-1-yl}quinoline] | 66.9% | 47.7% | 86.9% | 48.7% | 91.6% | 89.8% | 100% | 95.3% | 89.9% | 83.9% | 86% | 76.2% | 94.4% | 90.2% |  |  |  |  |  |  |  |
| CC(C)(C)NC1CCN(c2c(C#N)c(NCc3ccccc3)nc3ccccc23)CC1 [Compound 3286CN, 2-(benzylamino)-3-cyano-4-[4-(tert-butylamino)piperidin-1-yl]quinoline] | 7.6% | 0.1% | 90.4% | 60.5% | 85% | 0.4% | 101% | 54.8% | 73.5% | 2.4% | 75.4% | 0.4% | 54.5% | 0.2% | 5 to 10 µM | 5 to 10 µM | 5 to 10 µM | 5 to 10 µM | 5 to 10 µM | 5 to 10 µM | EC50 [7]: 0.5 to 5 µM |
| CCN(CC)C1CCCN(c2c(C#N)c(NCc3ccc(Cl)cc3)nc3ccccc23)C1 (stereo not shown) [Compound 160CN, 2-(4-chlorobenzylamino)-3-cyano-4-[3-(diethylamino)piperidin-1-yl]quinoline] | 86.4% | 47.3% | 106% | 94.5% | 94.5% | 48.3% | 99.6% | 75.3% | 94.9% | 40% | 89.5% | 62.3% | 86.6% | 47.9% |  |  |  |  |  |  |  |
| N#Cc1c(NCc2ccc(Cl)cc2)nc2ccccc2c1N1CCC(NC2CCCC2)C1 (stereo not shown) [Compound 134CN, 2-(4-chloro-benzylamino)-3-cyano-4-[3-(cyclopentyl-amino)pyrroli-din-1-yl]quinoline] | 88.5% | 50.6% | 100% | 89.5% | 101% | 81.3% | 99.4% | 91.7% | 92.8% | 64% | 85.3% | 70.5% | 79.9% | 29.1% |  |  |  |  |  |  |  |
| Cc1ccc(OC2CCN(c3c(C#N)c(NCc4ccc(Cl)cc4)nc4ccccc34)CC2)cc1 [Compound 2944CN, 2-(4-chlorobenzylamino)-3-cyano-4-[4-(p-tolyloxy)piperidin-1-yl]quinoline] | 32.8% | 29.1% | 104% | 92.1% | 107% | 84% | 111% | 112% | 96% | 95.5% | 93.9% | 89% | 96.9% | 87.1% |  |  |  |  |  |  |  |
| COc1ccc(CNc2nc3ccccc3c(N3CCC(NC(C)(C)C)CC3)c2C#N)cc1 [Compound 3290CN, 2-(4-methoxybenzylamino)-3-cyano-4-[4-(tert-butylamino)piperidin-1-yl]quinoline] | 43.8% | 0.7% | 76.4% | 7.4% | 75.5% | 0.7% | 95.7% | 38.3% | 74.1% | 2.7% | 80.2% | 1% | 57.6% | 0.8% | 0.5 to 5 µM | 5 to 10 µM | 0.5 to 5 µM | 5 to 10 µM | 5 to 10 µM | 0.5 to 5 µM | EC50 [7]: 0.5 to 5 µM |
| N#Cc1c(NCc2ccc(Cl)cc2)nc2ccccc2c1N1CCC(Oc2ccccc2)CC1 [Compound 2940CN, 2-(4-chlorobenzylamino)-3-cyano-4-(4-phenoxypiperidin-1-yl)quinoline] | 92.9% | 82.9% | 102% | 89.1% | 89.7% | 79.4% | 103% | 102% | 97.1% | 91.7% | 97.3% | 88.9% | 104% | 98.3% |  |  |  |  |  |  |  |
| CC(C)(C)NC1CCN(c2c(C#N)c(Nc3ccc(F)c(F)c3)nc3ccccc23)CC1 [Compound 3264CN, 2-(3,4-difluorophenylamino)-3-cyano-4-[4-(tert-butylamino)piperidin-1-yl]quinoline] | 0.3% | 0.3% | 0.4% | 0.5% | 0.5% | 0.3% | 78.1% | 2.4% | 12.7% | 0.6% | 11.7% | 0.5% | 12.8% | 0.4% | 0.5 to 5 µM | 0.5 to 5 µM | 0.5 to 5 µM |  | 0.5 to 5 µM | 0.5 to 5 µM |  |
| N#Cc1c(NCc2ccc(Cl)cc2)nc2ccccc2c1N1CCC(NC2CCOCC2)C1 (stereo not shown) [Compound 136CN, 2-(4-chloro-benzylamino)-3-cyano-4-{3-[(tetrahydro-2H-pyran-4-yl)-amino]pyrroli-din-1-yl}quinoline] | 73.3% | 17.4% | 95.7% | 32% | 88.6% | 44.1% | 91.7% | 63.6% | 75.7% | 21.8% | 87.6% | 50.5% | 110% | 17.4% |  |  |  |  |  |  |  |
| CNC1CCN(c2c(C#N)c(NCc3ccc(Cl)cc3)nc3ccccc23)CC1 [Compound 3172CN, 2-(4-chlorobenzylamino)-3-cyano-4-[4-(methylamino)piperidin-1-yl]quinoline] | 0.2% | 0.1% | 0.5% | 0.4% | 0.5% | 0.4% | 56.4% | 0.5% | 0.5% | 0.3% | 30.7% | 0.4% | 0.4% | 0.3% | 0.5 to 5 µM | 0.5 to 5 µM | 0.5 to 5 µM | 5 to 10 µM | 0.5 to 5 µM | 0.5 to 5 µM | EC50 [7]: 0.5 to 5 µM |
